Experimental data as given in patent publication US9572785B2, “DP2 antagonist and uses thereof” (Brickell Biotech, Inc., priority 2009, dated 2017).
Where two headings read alike, the source gives them in different places.

Tests used:
[1] = in vivo; details: Hartley, guinea pig, in vivo
[2] = target: T1, mouse DP2 receptor (Mus musculus, UniProt Q9Z2J6); assay: DP2 radioligand membrane binding assay, mouse
T1 construct: expressed in transfected cells
T1 sequence (Q9Z2J6 1-382): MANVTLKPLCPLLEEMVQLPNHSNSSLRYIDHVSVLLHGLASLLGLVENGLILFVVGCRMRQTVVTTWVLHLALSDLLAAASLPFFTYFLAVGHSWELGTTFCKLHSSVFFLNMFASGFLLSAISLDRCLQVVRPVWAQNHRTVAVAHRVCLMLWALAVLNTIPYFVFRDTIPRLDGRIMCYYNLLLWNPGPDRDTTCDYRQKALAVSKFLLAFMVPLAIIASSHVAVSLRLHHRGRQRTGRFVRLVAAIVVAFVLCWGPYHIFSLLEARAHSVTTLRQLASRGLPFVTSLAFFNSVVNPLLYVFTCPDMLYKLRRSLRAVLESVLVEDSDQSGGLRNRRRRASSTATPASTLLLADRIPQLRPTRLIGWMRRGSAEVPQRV
Protocol: (§1) HEK293 cells stably expressing recombinant human DP2 are resuspended in 10 mM Hepes, 7.4 containing 1 mM DTT, lysed and centrifuged at 75,000×g to pellet the membranes. The membranes are resuspended in 10 mM Hepes, 7.4 containing 1 mM DTT and 10% glycerol to approximately 5 mg protein/ml. […] The reactions are terminated by rapid filtration through Whatman GF/C glass fibre filter plates. […] After harvesting, the filter plates are washed 3 times with 1 ml cold Wash Buffer then dried. Scintillant is then added to the plates and the radioactivity retained on the filters is determined on a Packard TopCount (Perkin Elmer). Specific binding is determined as total radioactive binding minus non-specific binding in the presence of 10 μM PGD2. IC50s were determined using GraphPad prism analysis of drug titration curves. Mouse, rat and guinea pig DP2 receptors were also investigated.

[3] = target: T2, rat DP2 (Rattus norvegicus, UniProt Q6XKD3); assay: DP2 radioligand membrane binding assay, rat; details: read-out: average IC50, inhibition of radiolabeled PGD2 binding
T2 sequence (Q6XKD3 1-403): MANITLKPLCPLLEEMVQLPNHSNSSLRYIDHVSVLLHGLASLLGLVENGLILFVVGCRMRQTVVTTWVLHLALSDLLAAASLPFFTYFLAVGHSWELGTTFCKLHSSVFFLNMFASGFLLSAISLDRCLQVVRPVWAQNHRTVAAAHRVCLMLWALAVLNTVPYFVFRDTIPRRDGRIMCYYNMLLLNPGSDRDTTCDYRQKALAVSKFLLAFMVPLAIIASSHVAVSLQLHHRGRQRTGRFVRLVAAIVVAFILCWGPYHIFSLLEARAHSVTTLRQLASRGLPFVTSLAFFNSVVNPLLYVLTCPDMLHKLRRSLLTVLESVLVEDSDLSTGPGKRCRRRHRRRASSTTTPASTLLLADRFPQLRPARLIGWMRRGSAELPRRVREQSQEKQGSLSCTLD
Protocol: as §1

[4] = clinical; details: human
[5] = system: CYP2C9

CCN(Cc1cc(C(F)(F)F)ccc1-c1cc(CC(=O)O)ccc1OC)C(=O)NCc1ccccc1 [Compound 1, [2′-(3-benzyl-1-ethyl-ureidomethyl)-6-methoxy-4′-trifluoromethyl-biphenyl-3-yl]-acetic acid]
concentration at 18.5 h [1]: < 40 nM | IC50 ([2]; mouse DP2, membrane binding, read-out: average IC50, inhibition of radiolabeled PGD2 binding): 7.8 nM | IC50 ([2]; mouse DP2 receptor, in the presence of 0.2% mouse serum albumin, read-out: IC50, radioligand membrane binding): 20.1 nM | IC50 [3]: 10.4 nM | half-life ([4]; in vivo): 6.6 to 11 h | AUC(0-t) ([4]; plasma, oral, 30 mg): 32.3 ng·h/mL | Cmax ([4]; plasma, oral, 30 mg): 16 ng/mL | AUC(0-t) ([4]; plasma, po, 30 mg): 24.1 ng·h/mL | Cmax ([4]; plasma, po, 30 mg): 11.2 ng/mL | half-life ([4]; plasma, po, 30 mg): 6.6 h | AUC(0-t) ([4]; plasma, po, 100 mg): 118 ng·h/mL | Cmax ([4]; plasma, po, 100 mg): 81 ng/mL | half-life ([4]; plasma, po, 100 mg): 8.1 h | AUC(0-t) ([4]; plasma, po, 300 mg): 1420 ng·h/mL | Cmax ([4]; plasma, po, 300 mg): 1400 ng/mL | half-life ([4]; plasma, po, 300 mg): 7 h | increase in 4-hydroxydiclofenac (CYP2C9) production compared to native cells [5]: 1.1 fold
